Measured values: ChEMBL document CHEMBL1201862, “PubChem BioAssay data set” (2004)
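Protocol summary: plate cells (96-well), add compound at 5 concentrations, incubate 48 h, interpolate endpoints linearly. At the GI50, growth is halved.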 The source made the active and inactive calls. Rule as the data show it: active = GI50 up to about 1.1 µM and inactive = higher.

Tests used:
Test in all cases: inhibition of tumour cell growth, NCI panel, 48 h
MCF7 = tested on: MCF7
NCI/ADR-RES = tested on: NCI/ADR-RES
CAKI-1 = tested on: CAKI-1
UO-31 = tested on: UO-31
SNB-75 = tested on: SNB-75
U-251 = tested on: U-251
HOP-92 = tested on: HOP-92
K562 = tested on: K562
NCI-H522 = tested on: NCI-H522
NCI-H226 = tested on: NCI-H226
MOLT-4 = tested on: MOLT-4
HCT-116 = tested on: HCT-116
SK-MEL-5 = tested on: SK-MEL-5
OVCAR-3 = tested on: OVCAR-3
A498 = tested on: A498
CCRF-CEM = tested on: CCRF-CEM
PC-3 = tested on: PC-3
A549 = tested on: A549
HT-29 = tested on: HT-29
OVCAR-5 = tested on: OVCAR-5

SMILES | GI50 (MCF7) | GI50 (NCI/ADR-RES) | GI50 (CAKI-1) | GI50 (UO-31) | GI50 (SNB-75) | GI50 (U-251) | GI50 (HOP-92) | GI50 (K562) | GI50 (NCI-H522) | GI50 (NCI-H226) | GI50 (MOLT-4) | GI50 (HCT-116) | GI50 (SK-MEL-5) | GI50 (OVCAR-3) | GI50 (A498) | GI50 (CCRF-CEM) | GI50 (PC-3) | GI50 (A549) | GI50 (HT-29) | GI50 (OVCAR-5)
COC(=O)C1=C(C)C=C(N2CCOCC2)C(C(=O)OC)C1c1ccccc1 (stereo not drawn) | > 10 µM (inactive) | > 10 µM (inactive) | > 10 µM (inactive) | > 10 µM (inactive) | > 10 µM (inactive) | > 10 µM (inactive) | > 10 µM (inactive) | > 10 µM (inactive) | > 10 µM (inactive) | > 10 µM (inactive) | > 10 µM (inactive) | > 10 µM (inactive) | > 10 µM (inactive) | > 10 µM (inactive) | > 10 µM (inactive) | > 10 µM (inactive) | > 10 µM (inactive) | > 10 µM (inactive) | > 10 µM (inactive) | > 10 µM (inactive)
O=c1c(O)c(-c2cc(O)c(O)c(O)c2)oc2cc(O)cc(O)c12 [MYRICETIN] | 18.5 µM (inactive) | 22.4 µM (inactive) | 23.6 µM (inactive) | 90.8 µM (inactive) | 64.4 µM (inactive) | 18.7 µM (inactive) | 46.7 µM (inactive) | 35.6 µM (inactive) | 68.1 µM (inactive) | 25.6 µM (inactive) | 54.6 µM (inactive) | – | 31.5 µM (inactive) | 30.6 µM (inactive) | > 100 µM (inactive) | 64.6 µM (inactive) | > 100 µM (inactive) | 33.8 µM (inactive) | 20.3 µM (inactive) | 84.1 µM (inactive)
CCOC(=O)C(NC(=O)CC)(Nc1ccc(S(=O)(=O)Nc2nc(C)cc(C)n2)cc1)C(F)(F)F (stereo not drawn) | 36.6 µM (inactive) | > 100 µM (inactive) | > 100 µM (inactive) | > 100 µM (inactive) | > 100 µM (inactive) | > 100 µM (inactive) | > 100 µM (inactive) | > 100 µM (inactive) | 31.6 µM (inactive) | > 100 µM (inactive) | > 100 µM (inactive) | > 100 µM (inactive) | > 100 µM (inactive) | > 100 µM (inactive) | > 100 µM (inactive) | > 100 µM (inactive) | > 100 µM (inactive) | > 100 µM (inactive) | > 100 µM (inactive) | > 100 µM (inactive)
COc1ccc(/N=N/C(=NNC(=O)c2ccc(C)cc2)c2ccc(N(C)C)cc2)cc1 | 17.1 µM (inactive) | 33.8 µM (inactive) | > 91.8 µM (inactive) | 52.2 µM (inactive) | 87.3 µM (inactive) | 63.7 µM (inactive) | 41.5 µM (inactive) | 29.4 µM (inactive) | 28.9 µM (inactive) | 39.8 µM (inactive) | 20.9 µM (inactive) | 34.4 µM (inactive) | 27.2 µM (inactive) | 28.4 µM (inactive) | 52 µM (inactive) | 14 µM (inactive) | 57.7 µM (inactive) | 48.3 µM (inactive) | 30.3 µM (inactive) | > 85.9 µM (inactive)
O=C1CCC2(CC1CCSc1ccccc1)OCCO2 (stereo not drawn) | > 100 µM (inactive) | > 100 µM (inactive) | > 100 µM (inactive) | > 100 µM (inactive) | > 100 µM (inactive) | > 100 µM (inactive) | > 100 µM (inactive) | > 100 µM (inactive) | > 100 µM (inactive) | > 100 µM (inactive) | 81.8 µM (inactive) | – | 88.5 µM (inactive) | > 100 µM (inactive) | > 100 µM (inactive) | > 100 µM (inactive) | > 100 µM (inactive) | > 100 µM (inactive) | > 100 µM (inactive) | > 100 µM (inactive)
CCCC(Sc1nc(N)nc2nc[nH]c12)C(=O)O (stereo not drawn) | 62.4 µM (inactive) | 41.9 µM (inactive) | 41 µM (inactive) | 65.2 µM (inactive) | > 100 µM (inactive) | > 100 µM (inactive) | > 100 µM (inactive) | 37.7 µM (inactive) | 49 µM (inactive) | > 100 µM (inactive) | 33.2 µM (inactive) | 42.1 µM (inactive) | > 100 µM (inactive) | > 100 µM (inactive) | > 100 µM (inactive) | 81.5 µM (inactive) | > 100 µM (inactive) | > 100 µM (inactive) | 78.5 µM (inactive) | 63.1 µM (inactive)
Nc1ccc(-c2nc3cc(F)ccc3s2)cc1Cl | 0.0102 µM (active) | 48.9 µM (inactive) | 8.67 µM (inactive) | 31.8 µM (inactive) | 20.5 µM (inactive) | 20 µM (inactive) | 25.5 µM (inactive) | 14.8 µM (inactive) | 20.5 µM (inactive) | 0.109 µM (active) | > 35.6 µM (inactive) | 0.0782 µM (active) | 25.5 µM (inactive) | 0.049 µM (active) | 3.07 µM (inactive) | > 22.9 µM (inactive) | 20 µM (inactive) | 7.46 µM (inactive) | 0.692 µM (active) | 0.0219 µM (active)
CCC/C(Cl)=N/OC(NC(=O)OCC)(C(F)(F)F)C(F)(F)F | 23.6 µM (inactive) | 34.5 µM (inactive) | 20.6 µM (inactive) | 19.6 µM (inactive) | 82.4 µM (inactive) | > 100 µM (inactive) | 20.3 µM (inactive) | 25.6 µM (inactive) | > 100 µM (inactive) | > 100 µM (inactive) | 32.5 µM (inactive) | 19.4 µM (inactive) | 23.8 µM (inactive) | 15.8 µM (inactive) | > 100 µM (inactive) | 22.1 µM (inactive) | 98.9 µM (inactive) | > 100 µM (inactive) | 22.4 µM (inactive) | 16.4 µM (inactive)
CC(O)C1(O)C(O)CC(OC2c3cc4c(c(O)c3[C@@H]3C[C@@]2(C)OC32C=c3cc[nH]c3=N2)C(=O)c2cccc(O)c2C4=O)OC1C (stereo partly drawn) | 0.762 µM (active) | 3.44 µM (inactive) | 1.33 µM (inactive) | 1.77 µM (inactive) | 1.26 µM (inactive) | 1.53 µM (inactive) | 1.64 µM (inactive) | 0.935 µM (active) | 0.307 µM (active) | 0.701 µM (active) | 0.334 µM (active) | 0.789 µM (active) | 3.06 µM (inactive) | 1.08 µM (active) | 1.29 µM (inactive) | 0.34 µM (active) | 1.23 µM (inactive) | 0.433 µM (active) | 0.644 µM (active) | 3.08 µM (inactive)
Cc1ccnc2[nH]c3ccccc3c(=O)c12 | 21.8 µM (inactive) | 28.6 µM (inactive) | 8.41 µM (inactive) | 18 µM (inactive) | 16.7 µM (inactive) | > 10 µM (inactive) | 41.6 µM (inactive) | 33.2 µM (inactive) | 15.2 µM (inactive) | 24.7 µM (inactive) | 20.4 µM (inactive) | 16.6 µM (inactive) | 14 µM (inactive) | 23.7 µM (inactive) | 28.8 µM (inactive) | 36.6 µM (inactive) | 21.8 µM (inactive) | – | 15.7 µM (inactive) | 23.8 µM (inactive)
CCOC(=O)c1nc2cc(C(F)(F)F)ccc2nc1Oc1ccc(C#N)cc1 | > 100 µM (inactive) | > 100 µM (inactive) | > 100 µM (inactive) | > 100 µM (inactive) | > 100 µM (inactive) | > 100 µM (inactive) | > 100 µM (inactive) | 70.6 µM (inactive) | > 100 µM (inactive) | > 100 µM (inactive) | 63.2 µM (inactive) | 16.8 µM (inactive) | 92.5 µM (inactive) | > 100 µM (inactive) | 69.8 µM (inactive) | 70 µM (inactive) | > 100 µM (inactive) | > 100 µM (inactive) | – | > 100 µM (inactive)
CCCCc1c2c(c(C)c3c1C(=O)OC3)Oc1ccccc1O2 | 1.63 µM (inactive) | 0.382 µM (active) | 5.74 µM (inactive) | 5.77 µM (inactive) | 0.562 µM (active) | 0.57 µM (active) | 10.2 µM (inactive) | 0.379 µM (active) | 0.217 µM (active) | 2.8 µM (inactive) | 0.973 µM (active) | 0.565 µM (active) | 0.478 µM (active) | 0.274 µM (active) | 1.25 µM (inactive) | 0.695 µM (active) | 0.442 µM (active) | 1.73 µM (inactive) | – | > 27.5 µM (inactive)
N=c1oc2c(Br)cc(Br)cc2cc1C(=O)Nc1ccccn1 | 39.9 µM (inactive) | 61.4 µM (inactive) | > 100 µM (inactive) | – | > 100 µM (inactive) | 96.6 µM (inactive) | > 100 µM (inactive) | > 100 µM (inactive) | 47.2 µM (inactive) | 84.9 µM (inactive) | > 100 µM (inactive) | 38.3 µM (inactive) | 63.1 µM (inactive) | 32.3 µM (inactive) | > 100 µM (inactive) | 41.2 µM (inactive) | 38.5 µM (inactive) | 65.3 µM (inactive) | 44.1 µM (inactive) | > 100 µM (inactive)
COC1(CC[C@@H](C)COC2OC(CO)C(O)C(O)C2O)O[C@H]2C[C@H]3[C@@H]4CC=C5C[C@@H](OC6OC(CO)C(OC7OC(C)C(O)C(O)C7O)C(O)C6OC6OC(C)C(O)C(O)C6O)CC[C@]5(C)[C@H]4CC[C@]3(C)[C@H]2[C@@H]1C (stereo partly drawn) | 6.28 µM (inactive) | 3.18 µM (inactive) | 1.53 µM (inactive) | 2.92 µM (inactive) | 2.06 µM (inactive) | 1.81 µM (inactive) | 3.25 µM (inactive) | 18.2 µM (inactive) | 2.08 µM (inactive) | 9.18 µM (inactive) | 21.7 µM (inactive) | – | 6.12 µM (inactive) | 2.36 µM (inactive) | 10.2 µM (inactive) | 17.9 µM (inactive) | 3.13 µM (inactive) | 2 µM (inactive) | 2.68 µM (inactive) | 4.41 µM (inactive)
